Results as given in patent US20250042895A1, “INHIBITORS OF ULK1 AND METHODS OF USE” (H. LEE MOFFITT CANCER CENTER AND RESEARCH INSTITUTE, INC., priority 2021, published 2025).
pEC50, pIC50: −log10 of the molar value.

Columns and labels:
[1] = molecular target: T1, ULK1 kinase (Homo sapiens, UniProt O75385); assay: Radiometric HotSpot kinase assay (Reaction Biology); format: biochemical; details: activity-based ULK1 kinase assay
T1 construct: purchased Reaction Biology
T1 sequence (O75385 1-1050): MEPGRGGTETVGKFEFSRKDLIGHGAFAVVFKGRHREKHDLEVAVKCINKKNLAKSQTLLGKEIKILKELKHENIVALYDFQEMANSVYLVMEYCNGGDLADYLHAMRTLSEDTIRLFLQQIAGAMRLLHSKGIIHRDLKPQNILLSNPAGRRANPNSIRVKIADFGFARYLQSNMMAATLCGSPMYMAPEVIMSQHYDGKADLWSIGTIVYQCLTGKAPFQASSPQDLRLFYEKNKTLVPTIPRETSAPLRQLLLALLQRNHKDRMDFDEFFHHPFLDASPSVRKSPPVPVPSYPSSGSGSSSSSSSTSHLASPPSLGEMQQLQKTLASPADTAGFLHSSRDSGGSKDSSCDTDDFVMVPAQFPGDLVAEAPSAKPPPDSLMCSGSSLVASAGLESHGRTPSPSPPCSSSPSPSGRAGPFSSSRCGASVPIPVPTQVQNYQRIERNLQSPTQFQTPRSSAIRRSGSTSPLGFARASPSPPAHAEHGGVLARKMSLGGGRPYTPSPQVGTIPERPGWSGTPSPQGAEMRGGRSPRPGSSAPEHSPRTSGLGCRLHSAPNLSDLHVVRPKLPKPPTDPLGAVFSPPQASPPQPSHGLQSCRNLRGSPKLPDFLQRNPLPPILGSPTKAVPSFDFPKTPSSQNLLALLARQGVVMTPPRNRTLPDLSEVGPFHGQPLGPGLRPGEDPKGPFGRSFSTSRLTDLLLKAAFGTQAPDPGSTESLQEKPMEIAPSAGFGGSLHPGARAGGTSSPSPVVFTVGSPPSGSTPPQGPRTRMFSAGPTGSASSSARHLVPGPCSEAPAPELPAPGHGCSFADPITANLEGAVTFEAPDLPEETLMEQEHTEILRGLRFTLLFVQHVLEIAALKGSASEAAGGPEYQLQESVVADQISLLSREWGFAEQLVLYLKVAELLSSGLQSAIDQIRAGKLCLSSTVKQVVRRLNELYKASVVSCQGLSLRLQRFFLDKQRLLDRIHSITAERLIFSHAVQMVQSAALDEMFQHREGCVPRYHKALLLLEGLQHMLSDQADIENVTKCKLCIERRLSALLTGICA

[2] = molecular target: T2, GST-ULK1 (Homo sapiens, UniProt O75385); assay: LanthaScreen ULK1 inhibitor assay; format: biochemical; details: 5 nM GST-ULK1, 30 nM tracer, 20 μM ATP, 1 hr room temperature
T2 sequence (O75385 1-1050): T1 sequence (O75385 1-1050)

[3] = molecular target: T3, ULK1 kinase domain (Homo sapiens, UniProt O75385); assay: Differential scanning fluorimetry (thermal shift); format: binding; details: 2 μM ULK1 kinase domain, 50 μM compound, vs DMSO reference
T3 construct: The protein expression construct of ULK1 kinase domain (1-283) was cloned; 6His-Sumo (N, cleaved yes); made in house; host or cells: E. coli BL21 star, co-expressed with lambda phosphatase
T3 sequence (O75385 1-283): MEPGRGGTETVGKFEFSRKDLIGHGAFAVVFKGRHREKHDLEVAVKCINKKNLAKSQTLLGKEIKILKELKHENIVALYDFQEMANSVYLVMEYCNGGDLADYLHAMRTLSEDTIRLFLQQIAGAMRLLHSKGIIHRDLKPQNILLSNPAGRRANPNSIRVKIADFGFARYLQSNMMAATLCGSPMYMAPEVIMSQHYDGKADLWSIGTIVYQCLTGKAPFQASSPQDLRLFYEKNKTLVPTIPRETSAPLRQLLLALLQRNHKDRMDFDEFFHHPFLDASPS

[4] = molecular target: T4, ULK1-nanoluc (Homo sapiens, UniProt O75385); assay: NanoBRET target engagement in live cells; format: cell-based; details: H2030 cells transfected with ULK1-nanoluc, Tracer K10, 2 hr
T4 construct: host or cells: H2030 cells (ATCC)
T4 sequence (O75385 1-1050): T1 sequence (O75385 1-1050)

pEC50 [4]	Compound	IC50 [1] [nM]	pIC50 [2]	ΔTm at 50 µM [3] [°C]
	O=C(NC(CO)CO)c1cccc(-c2cnc3[nH]c(-c4ccc(F)cc4)cc3c2)n1 [Compound 55, N-(1,3-Dihydroxypropan-2-yl)-6-(2-(4-fluorophenyl)-1H-pyrrolo[2,3-b]pyridin-5-yl)picolinamide]	44	7.13	8.56
	CC[C@H](CO)NC(=O)c1cccc(-c2cnc3[nH]c(-c4ccc(F)cc4)cc3c2)n1 [Compound 56, (R)-6-(2-(4-Fluorophenyl)-1H-pyrrolo[2,3-b]pyridin-5-yl)-N-(1-hydroxybutan-2-yl)-picolinamide]	72	7.10	6.85
	O=C(NCC(O)C(F)(F)F)c1cccc(-c2cnc3[nH]c(-c4ccc(F)cc4)cc3c2)n1 (centres unmarked) [Compound 57, 6-(2-(4-Fluorophenyl)-1H-pyrrolo[2,3-b]pyridin-5-yl)-N-(3,3,3-trifluoro-2-hydroxy-propyl)picolinamide]	49	7.70	8.73
	CC[C@H](CO)NC(=O)c1nc(-c2cnc3[nH]c(-c4ccc(F)cc4)cc3c2)cs1 [Compound 62, (R)-4-(2-(4-Fluorophenyl)-1H-pyrrolo[2,3-b]pyridin-5-yl)-N-(1-hydroxybutan-2-yl)-thiazole-2-carboxamide]	78	6.74	4.81
	O=C(NC(CO)CO)c1nc(-c2cnc3[nH]c(-c4ccc(F)cc4)cc3c2)cs1 [Compound 63, N-(1,3-Dihydroxypropan-2-yl)-4-(2-(4-fluorophenyl)-1H-pyrrolo[2,3-b]pyridin-5-yl)-thiazole-2-carboxamide]	55	6.99	6.46
	O=C(NCC1(O)CCCC1)c1nc(-c2cnc3[nH]c(-c4ccc(F)cc4)cc3c2)cs1 [Compound 72, 4-(2-(4-fluorophenyl)-1H-pyrrolo-[2,3-b]pyridin-5-yl)-N-((1-hydroxy-cyclopentyl)methyl)thiazole-2-carboxamide]	50	7.44	7.96
	O=C(c1nc(-c2cnc3[nH]c(-c4ccc(F)cc4)cc3c2)cs1)N1CC(F)C1 [Compound 74, (3-fluoroazetidin-1-yl)(4-(2-(4-fluorophenyl)-1H-pyrrolo[2,3-b]-pyridin-5-yl)thiazol-2-yl)methanone]	644	6.18	1.87
	C[C@H](CO)NC(=O)c1nc(-c2cnc3[nH]c(-c4ccc(F)cc4)cc3c2)cs1 [Compound 77, (R)-4-(2-(4-fluorophenyl)-1H-pyrrolo[2,3-b]pyridin-5-yl)-N-(1-hydroxypropan-2-yl)thiazole-2-carboxamide]	348	6.13	4.54
	O=C(NC1CNC1)c1nc(-c2cnc3[nH]c(-c4ccc(F)cc4)cc3c2)cs1 [Compound 80, N-(azetidin-3-yl)-4-(2-(4-fluoro-phenyl)-1H-pyrrolo[2,3-b]pyridin-5-yl)thiazole-2-carboxamide]	502	6.02	4.99
	Fc1ccc(-c2cc3c(NCC(F)(F)F)c(C(F)(F)F)cnc3[nH]2)cc1 [Compound 81, 2-(4-fluorophenyl)-N-(2,2,2-trifluoroethyl)-5-(trifluoromethyl)-1H-pyrrolo[2,3-b]pyridin-4-amine]	15	7.85	5.41
	Fc1ccc(-c2cc3c(NC4CCC4)c(C(F)(F)F)cnc3[nH]2)cc1 [Compound 82, N-cyclobutyl-2-(4-fluorophenyl)-5-(trifluoro-methyl)-1H-pyrrolo[2,3-b]pyridin-4-amine]	9	7.62	4.39
	FC(F)(F)c1cnc2[nH]c(C3CCOCC3)cc2c1NC1CCNC1 (centres unmarked) [Compound 83, N-(pyrrolidin-3-yl)-2-(tetrahydro-2H-pyran-4-yl)-5-(trifluoromethyl)-1H-pyrrolo[2,3-b]-pyridin-4-amine]	401	6.68	6.81
	FC(F)(F)c1cnc2[nH]c(C3=CCOCC3)cc2c1NC1CCNC1 (centres unmarked) [Compound 84, 2-(3,6-dihydro-2H-pyran-4-yl)-N-(pyrrolidin-3-yl)-5-(trifluoromethyl)-1H-pyrrolo[2,3-b]pyridin-4-amine]	549	6.39	7.13
	FC1(F)CN(c2c(C(F)(F)F)cnc3[nH]c(C4=CCOCC4)cc23)C1 [Compound 86, 4-(3,3-Difluoroazetidin-1-yl)-2-(3,6-dihydro-2H-pyran-4-yl)-5-(trifluoromethyl)-1H-pyrrolo[2,3-b]pyridine]	56	6.76	6.82
	FC(F)(F)c1cnc2[nH]c(C3CCOCC3)cc2c1NCCN1CCOCC1 [Compound 88, N-(2-morpholinoethyl)-2-(tetrahydro-2H-pyran-4-yl)-5-(trifluoromethyl)-1H-pyrrolo-[2,3-b]pyridin-4-amine]	4450	5.35	2.37
	FC(F)(F)c1cnc2[nH]c(C3CCOCC3)cc2c1NCCCN1CCCC1 [Compound 90, N-(3-(pyrrolidin-1-yl)propyl)-2-(tetrahydro-2H-pyran-4-yl)-5-(trifluoromethyl)-1H-pyrrolo[2,3-b]pyridin-4-amine]	155	6.84	9.23
	FC(F)(F)c1cnc2[nH]c(C3=CCOCC3)cc2c1NCCCN1CCCC1 [Compound 91, 2-(3,6-dihydro-2H-pyran-4-yl)-N-(3-(pyrrolidin-1-yl)propyl)-5-(trifluoromethyl)-1H-pyrrolo[2,3-b]pyridin-4-amine]	110	6.78	9.77
	FC1(F)CCN(c2c(C(F)(F)F)cnc3[nH]c(C4=CCOCC4)cc23)CC1 [Compound 93, 4-(4,4-Difluoropiperidin-1-yl)-2-(3,6-dihydro-2H-pyran-4-yl)-5-(trifluoromethyl)-1H-pyrrolo[2,3-b]pyridine]	7070	5.08	2.03
	CN1CCC(c2cc3c(NCCN4CCOCC4)c(C(F)(F)F)cnc3[nH]2)CC1 [Compound 95, 2-(1-methylpiperidin-4-yl)-N-(2-morpholinoethyl)-5-(trifluoromethyl)-1H-pyrrolo[2,3-b]pyridin-4-amine]	758	6.04	0.49
	CN1CC=C(c2cc3c(NCCCN4CCCC4)c(C(F)(F)F)cnc3[nH]2)CC1 [Compound 97, 2-(1-methyl-1,2,3,6-tetrahydropyridin-4-yl)-N-(3-(pyrrolidin-1-yl)propyl)-5-(trifluoro-methyl)-1H-pyrrolo[2,3-b]pyridin-4-amine]	2380	6.27	7.07
	CN1CC=C(c2cc3c(NCCN4CCOCC4)c(C(F)(F)F)cnc3[nH]2)CC1 [Compound 99, 2-(1-methyl-1,2,3,6-tetrahydropyridin-4-yl)-N-(2-morpholinoethyl)-5-(trifluoromethyl)-1H-pyrrolo[2,3-b]pyridin-4-amine]	625	6.43	7.77
	CN1CC=C(c2cc3c(N4CC(F)(F)C4)c(C(F)(F)F)cnc3[nH]2)CC1 [Compound 100, 4-(3,3-difluoroazetidin-1-yl)-2-(1-methyl-1,2,3,6-tetrahydropyridin-4-yl)-5-(trifluoromethyl)-1H-pyrrolo[2,3-b]pyridine]	171	6.66	4.99
6.02	C[C@@H](CO)NC(=O)c1cc(-c2cnc3[nH]c(C4=CCCNC4)cc3c2)cs1 [Compound 102]		7.82	
